What all share (experiment): biochemical
What all share (assay type): binding

The target of one experiment is T1, YES (Homo sapiens, UniProt P07947).
T1 construct: the DNA-tagged SH2 domain concentrations used in this study were <0.1 nM; made in house; host or cells: HEK293 (transient transfection; unpurified cell extract)
The conditions noted are these: for remaining activity at 10 µM: read-out: percent of DMSO vehicle control.

A further experiment has as its target T2, VAV3 (Homo sapiens, UniProt Q9UKW4).
T2 construct: made in house; host or cells: HEK293 (transient transfection), unpurified extract
T2 sequence (Q9UKW4 1-847): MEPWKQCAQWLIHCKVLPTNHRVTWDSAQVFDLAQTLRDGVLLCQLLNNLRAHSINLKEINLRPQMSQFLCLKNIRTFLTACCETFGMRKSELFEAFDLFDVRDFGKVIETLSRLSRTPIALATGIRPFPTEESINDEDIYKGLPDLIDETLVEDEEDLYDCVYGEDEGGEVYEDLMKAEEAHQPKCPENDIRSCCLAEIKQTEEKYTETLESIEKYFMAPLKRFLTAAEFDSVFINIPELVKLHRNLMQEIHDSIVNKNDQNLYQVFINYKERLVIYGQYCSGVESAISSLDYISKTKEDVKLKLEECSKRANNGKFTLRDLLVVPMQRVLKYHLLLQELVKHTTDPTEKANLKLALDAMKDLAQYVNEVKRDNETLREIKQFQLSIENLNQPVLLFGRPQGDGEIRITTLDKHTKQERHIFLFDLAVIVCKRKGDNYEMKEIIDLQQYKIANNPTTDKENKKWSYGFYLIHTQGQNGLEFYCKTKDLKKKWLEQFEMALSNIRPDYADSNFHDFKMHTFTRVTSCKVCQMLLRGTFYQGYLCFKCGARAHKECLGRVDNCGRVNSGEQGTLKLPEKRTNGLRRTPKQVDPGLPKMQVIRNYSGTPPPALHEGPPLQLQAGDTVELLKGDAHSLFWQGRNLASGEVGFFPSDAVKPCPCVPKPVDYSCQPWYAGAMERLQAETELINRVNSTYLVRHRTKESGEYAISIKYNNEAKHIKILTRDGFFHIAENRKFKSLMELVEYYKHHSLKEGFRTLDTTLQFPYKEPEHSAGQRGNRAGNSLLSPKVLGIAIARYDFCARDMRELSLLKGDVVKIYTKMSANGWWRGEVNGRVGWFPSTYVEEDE
The settings on record: for percent of DMSO vehicle control at 10 µM / remaining activity at 10 µM: read-out: percent of DMSO vehicle control.

The target in another experiment is T3, VAV2 (Homo sapiens, UniProt P52735).
T3 construct: made in house; host or cells: HEK293 (transient transfection), unpurified extract
T3 sequence (P52735 1-878): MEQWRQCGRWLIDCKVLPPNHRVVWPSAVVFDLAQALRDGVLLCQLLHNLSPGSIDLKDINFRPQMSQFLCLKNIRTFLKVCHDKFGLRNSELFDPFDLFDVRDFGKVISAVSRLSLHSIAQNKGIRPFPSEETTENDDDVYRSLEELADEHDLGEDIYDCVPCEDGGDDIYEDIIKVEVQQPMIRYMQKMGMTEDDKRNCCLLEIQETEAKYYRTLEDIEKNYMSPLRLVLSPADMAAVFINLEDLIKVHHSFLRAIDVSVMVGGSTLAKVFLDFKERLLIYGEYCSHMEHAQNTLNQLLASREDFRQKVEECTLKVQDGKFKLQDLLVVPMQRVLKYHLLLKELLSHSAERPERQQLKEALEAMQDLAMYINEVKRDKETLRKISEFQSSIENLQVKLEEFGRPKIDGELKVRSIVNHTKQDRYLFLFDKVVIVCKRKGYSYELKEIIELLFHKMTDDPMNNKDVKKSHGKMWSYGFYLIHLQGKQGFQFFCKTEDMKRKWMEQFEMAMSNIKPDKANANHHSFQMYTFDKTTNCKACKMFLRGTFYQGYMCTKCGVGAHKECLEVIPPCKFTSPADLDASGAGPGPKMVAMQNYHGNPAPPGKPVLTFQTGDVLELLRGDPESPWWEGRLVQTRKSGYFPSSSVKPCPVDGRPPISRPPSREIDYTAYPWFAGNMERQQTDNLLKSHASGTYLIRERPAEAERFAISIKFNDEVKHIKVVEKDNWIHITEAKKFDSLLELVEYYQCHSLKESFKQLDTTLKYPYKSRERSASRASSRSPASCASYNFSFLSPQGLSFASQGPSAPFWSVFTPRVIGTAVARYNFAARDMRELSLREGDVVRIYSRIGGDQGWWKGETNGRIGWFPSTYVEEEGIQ
The settings on record: for remaining activity at 10 µM: read-out: percent of DMSO vehicle control.

In a further experiment the target is T4, ABL1 (Homo sapiens, UniProt P00519).
T4 construct: the DNA-tagged SH2 domain concentrations used in this study were <0.1 nM; made in house; host or cells: HEK293 (transient transfection; unpurified extract)
T4 sequence (P00519 127-217 limits assumed): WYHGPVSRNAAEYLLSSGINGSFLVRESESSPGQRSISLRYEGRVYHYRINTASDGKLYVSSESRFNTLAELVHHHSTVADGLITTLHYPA
The conditions noted are these: for percent of DMSO control binding at 10 µM / remaining activity at 10 µM: read-out: percent of DMSO vehicle control; for KD: dose-response.

The next experiment addresses T5, SOCS3 (Homo sapiens, UniProt O14543).
T5 construct: made in house; host or cells: HEK293 (transient transfection), unpurified extract
T5 sequence (O14543 1-225): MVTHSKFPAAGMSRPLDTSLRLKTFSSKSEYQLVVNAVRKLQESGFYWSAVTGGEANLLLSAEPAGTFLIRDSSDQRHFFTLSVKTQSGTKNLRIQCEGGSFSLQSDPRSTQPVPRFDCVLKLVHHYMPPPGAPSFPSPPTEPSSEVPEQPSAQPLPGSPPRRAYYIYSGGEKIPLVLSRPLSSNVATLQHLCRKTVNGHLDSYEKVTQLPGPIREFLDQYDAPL
The settings on record: for remaining activity at 10 µM: read-out: percent of DMSO vehicle control; for KD: dose-response.

The target in a further experiment is T6, SLP76 (Homo sapiens, UniProt Q13094).
T6 construct: made in house; host or cells: HEK293 (transient transfection), unpurified extract
T6 sequence (Q13094 1-533): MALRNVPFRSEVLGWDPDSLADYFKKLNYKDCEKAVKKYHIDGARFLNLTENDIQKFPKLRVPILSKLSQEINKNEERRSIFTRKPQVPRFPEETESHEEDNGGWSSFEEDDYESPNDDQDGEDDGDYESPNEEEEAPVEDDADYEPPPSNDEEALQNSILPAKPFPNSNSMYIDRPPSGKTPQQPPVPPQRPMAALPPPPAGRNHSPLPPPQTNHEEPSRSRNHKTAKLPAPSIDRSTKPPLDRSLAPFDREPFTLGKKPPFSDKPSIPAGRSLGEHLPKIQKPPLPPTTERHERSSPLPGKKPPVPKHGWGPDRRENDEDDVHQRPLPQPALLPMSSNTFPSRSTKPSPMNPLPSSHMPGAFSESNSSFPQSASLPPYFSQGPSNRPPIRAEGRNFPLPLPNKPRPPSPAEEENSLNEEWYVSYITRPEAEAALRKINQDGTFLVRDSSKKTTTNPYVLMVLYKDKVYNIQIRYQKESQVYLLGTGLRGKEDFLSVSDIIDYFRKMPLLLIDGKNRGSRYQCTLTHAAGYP
The conditions noted are these: for remaining activity at 10 µM: read-out: percent of DMSO vehicle control.

SMILES strings stand for the structures. Where two headings read alike, the source gives them in different places. Non-standard residues stand in square brackets, D forms with d. Residues, ends and D or L forms follow the SMILES beside them. *: point of attachment. pY = N[C@@H](Cc1ccc(OP(=O)(O)O)cc1)C(=O)O; Caffeoyl = O=C(/C=C/c1ccc(O)c(O)c1)*

T1 sequence (P07947 158-255 limits assumed): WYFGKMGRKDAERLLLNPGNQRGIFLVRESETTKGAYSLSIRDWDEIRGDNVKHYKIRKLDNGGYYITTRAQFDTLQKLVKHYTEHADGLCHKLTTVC

As to `CC[C@H](C)[C@H](NC(=O)[C@H](CCC(=O)O)NC(=O)[C@H](CCC(=O)O)NC(=O)[C@H](Cc1ccc(OP(=O)(O)O)cc1)NC(C)=O)C(=O)N[C@@H](CCC(=O)O)C(N)=O` [Ac-pYEEIE-NH2] (Ac-[pY]EEIE-NH2), the affinity at YES, expressed as Kd, was 3800 nM. Also, the “percent of DMSO vehicle control” value on YES (primary screen, 10 μM) came to 14.2±1.5%; on VAV3 (primary screen, 10 μM), 75.8%; at VAV2 (primary screen, 10 μM) it was 49.5±2.8%; on ABL1 (primary screen, 10 μM), 106.1%; at SOCS3 (primary screen, 10 μM) it was 149.7%; on SLP76 (primary screen, 10 μM), 42.0±2.1%.

Regarding `CC(=O)N[C@@H](Cc1ccc(CP(=O)(O)O)cc1)C(=O)NC1(C(=O)N[C@@H](CC(N)=O)C(=O)NCCCc2c(O)ccc3ccccc23)CCCCC1` [CGP78850], the remaining activity at 10 µM at YES stood at 66.7 ± 8.3%; at VAV2, 50.4 ± 7.8%; on SOCS3, 116 ± 4.4%; on SLP76, 44.1 ± 5.3%. For the same compound, the equilibrium dissociation constant (Kd) at VAV3 was found to be 860 nM; on ABL1, 560 ± 360 nM. For the same compound, the percent of DMSO vehicle control at 10 µM at VAV3 is 21.7 ± 3.7%. Further, at ABL1, the percent of DMSO control binding at 10 µM turned out to be 3.1 ± 1.7%.

As to `CC[C@H](C)[C@H](NC(=O)[C@H](CCC(=O)O)NC(=O)[C@H](CCC(=O)O)NC(=O)[C@H](Cc1ccc(OP(=O)(O)O)cc1)NC(=O)/C=C/c1ccc(O)c(O)c1)C(=O)N[C@@H](CCC(=O)O)C(=O)O` [Caffeic acid-pYEEIE] (Caffeoyl-[pY]EEIE-OH), the equilibrium dissociation constant (Kd) at YES stood at 1 ± 0.47 nM; on VAV3, 70 ± 12 nM; on VAV2, 58 ± 40 nM; at ABL1, 105 ± 17 nM; at SOCS3, 1800 ± 2000 nM. Moreover, the remaining activity at 10 µM was 0% on YES, 0.5 ± 0.1% at VAV2, 5.3 ± 0.3% at SOCS3 and 99.6 ± 4.7% at SLP76. The percent of DMSO vehicle control at 10 µM at VAV3 was determined as 0.4 ± 0.1%. Besides, the percent of DMSO control binding at 10 µM at ABL1 worked out at 0%.

With `O=C(CCl)Nc1cccc(CNC(=O)[C@H](Cc2ccc(OP(=O)(O)O)cc2)NC(=O)Cc2ccc(F)cc2)c1` [MN551], the remaining activity at 10 µM came to 46.5 ± 2.1% on YES (primary screen, 10 μM); 113% on VAV3 (primary screen, 10 μM); 77.8 ± 4.8% at VAV2 (primary screen, 10 μM); 35.7 ± 4.3% at ABL1 (primary screen, 10 μM); 24.4% on SOCS3 (primary screen, 10 μM); 116% at SLP76 (primary screen, 10 μM). On SOCS3, the KD entry is given as “No Hit”.

Consider `NC(=O)CC[C@H](NC(=O)[C@@H]1CC[C@@H]2CCN(C(=O)CCCCCC#Cc3cccc4c3CN(C3CCC(=O)NC3=O)C4=O)C[C@H](NC(=O)c3cc4cc(C(F)(F)P(=O)(O)O)ccc4[nH]3)C(=O)N21)C(=O)NC(c1ccccc1)c1ccccc1` (stereo partly drawn) [SD-36], for which the remaining activity at 10 µM at YES was 73.3 ± 11.9%; on VAV2, 117 ± 1.5%; at SOCS3, 100 ± 1.2%; on SLP76, 66.5 ± 0.8%. Further, the percent of DMSO vehicle control at 10 µM on VAV3 was 82.1 ± 3.8%. In addition, the percent of DMSO control binding at 10 µM on ABL1 is 87.4 ± 24%.

As to `CC(=O)N1CC[C@H]2CC[C@@H](C(=O)N[C@@H](CCC(N)=O)C(=O)NC(c3ccccc3)c3ccccc3)N2C(=O)[C@@H](NC(=O)c2cc3cc(C(F)(F)P(=O)(O)O)ccc3[nH]2)C1` [SI-109], the remaining activity at 10 µM was 113% at YES, 119% at VAV2, 153% at SOCS3 and 61.9% at SLP76. Moreover, the percent of DMSO vehicle control at 10 µM on VAV3 is 130%. The percent of DMSO control binding at 10 µM on ABL1 was determined as 132%.

In the case of `C/C(=C\C(=O)N[C@H](C(=O)N1CCC[C@H]1C(=O)N(c1ccccc1)c1ccc(I)cc1)C(C)(C)C)c1ccc(OP(=O)(O)O)cc1` [STAT6-IN-1], at YES (dose-response, read-out: KD), the dissociation constant Kd was found to be 9200 ± 380 nM. Besides, the remaining activity at 10 µM on YES (primary screen, 10 μM) is 29.5%; at VAV3 (primary screen, 10 μM), 40.3 ± 1.3%; at VAV2 (primary screen, 10 μM), 79.9 ± 1.6%; on ABL1 (primary screen, 10 μM), 0%; on SOCS3 (primary screen, 10 μM) it was 39.3 ± 22.1%; at SLP76 (primary screen, 10 μM), 50.8 ± 0.4%. Moreover, the KD entry on ABL1 and on SOCS3 was “No Hit” in each case.

Take `CC(C)(C)[C@H](NC(=O)/C=C/c1ccc(OP(=O)(O)O)cc1)C(=O)N1CCC[C@H]1C(=O)N(c1ccccc1)c1ccc(I)cc1` [STAT6-IN-3]: the remaining activity at 10 µM on YES (primary screen, 10 μM) amounted to 37.7 ± 27.8%; on VAV3 (primary screen, 10 μM), 76.8 ± 21.6%; on VAV2 (primary screen, 10 μM), 87.5 ± 11.3%; on ABL1 (primary screen, 10 μM), 0%; on SOCS3 (primary screen, 10 μM) it was 52.6 ± 50.6%; at SLP76 (primary screen, 10 μM), 93.6 ± 30.3%. For the same compound, the KD entry on ABL1 and at SOCS3 was “No Hit” each time.

Regarding `O=C(COc1ccc2cc(C(=O)Nc3ccccc3)ccc2c1)NCc1ccc(OP(=O)(O)O)c(OP(=O)(O)O)c1` [Stafib-1], the remaining activity at 10 µM is 63.1 ± 24.3% at YES (primary screen, 10 μM); 102% at VAV3 (primary screen, 10 μM); 95.8 ± 29.1% on VAV2 (primary screen, 10 μM); 19.9% at ABL1 (primary screen, 10 μM); 72.7 ± 29% at SOCS3 (primary screen, 10 μM); 97.5 ± 31% at SLP76 (primary screen, 10 μM). Moreover, the KD result at ABL1 is on record as “No Hit”.

Broadly, the Kd is the equilibrium constant for the complex coming apart.

Values taken from publication PMC12951562, “SH2scan: Mapping SH2 Domain-Ligand Binding Selectivity for Inhibitors and Degraders” (Journal of Medicinal Chemistry, 2026).
